In general, melting point refers to the temperature, or range, at which the solid turns liquid.

Molecules are shown by their SMILES. Counter-ions that a name gives are not always drawn.

`CCOC(=O)Cc1c2c(nn1CC)c(=O)[nH]c1ccccc12` [Example 17, Ethyl (2-ethyl-4-oxo-4,5-dihydro-2H-pyrazolo[3,4-c]quinolin-1-yl)acetate] gave a melting point of 233 to 235 °C.
Molecule `Cc1c2c(cnc3ccccc32)nn1-c1ccccc1` [Example 13, 1-Methyl-2-phenyl-2H-pyrazolo[3,4-c]quinoline] had a melting point of 128 to 130 °C.
Consider `CCCn1nc2c(O)nc3ccccc3c2c1CC(C)(C)O` [Example 29, 1-(2-Hydroxy-2-methylpropyl)-2-propyl-2H-pyrazolo[3,4-c]quinolin-4-ol], for which the melting point was 294 to 296 °C.
Molecule `CCCc1c2c(nn1-c1ccccc1)c(=O)[nH]c1ccccc12` [Example 28, 2-Phenyl-1-propyl-2,5-dihydro-4H-pyrazolo[3,4-c]quinolin-4-one] showed a melting point of over 300 °C.
With `CCn1nc2c(OC)nc3ccccc3c2c1CO` [Example 5, (2-Ethyl-4-methoxy-2H-pyrazolo[3,4-c]quinolin-1-yl)methanol] the figure was 219 to 220 °C.
With `Cc1c2c(nn1-c1ccccc1)c(=O)[nH]c1ccccc12` [Example 11, 1-Methyl-2-phenyl-2,5-dihydro-4H-pyrazolo[3,4-c]quinolin-4-one] the figure was over 250 °C; with `O=c1[nH]c2ccccc2c2c(CCO)n(-c3ccccc3)nc12` [Example 20, 1-(2-Hydroxyethyl)-2-phenyl-2,5-dihydro-4H-pyrazolo[3,4-c]quinolin-4-one], 310 to 312 °C.
As for `CCCn1nc2c(Cl)nc3ccccc3c2c1C` [Example 1, 4-Chloro-1-methyl-2-propyl-2H-pyrazolo[3,4-c]quinoline], the figure is 145 to 147 °C; as for `Clc1nc2ccccc2c2c(CCN3CCN(Cc4ccccc4)CC3)n(-c3ccccc3)nc12` [Example 23, 1-[2-(4-Benzylpiperazin-1-yl)ethyl]-4-chloro-2-phenyl-2H-pyrazolo[3,4-c]quinoline], 75 to 77 °C.
`CCc1c2c(nn1-c1ccccc1)c(=O)[nH]c1ccccc12` [Example 14, 1-Ethyl-2-phenyl-2,5-dihydro-4H-pyrazolo[3,4-c]quinolin-4-one] gave a melting point of 331 to 334 °C.
As for `CC(C)Cc1c2c(nn1C)c(O)nc1ccccc12` [Example 27, 1-Isobutyl-2-methyl-2H-pyrazolo[3,4-c]quinolin-4-ol], the melting point is over 280 °C.
As for `O=C(Cc1c2c(nn1-c1ccccc1)c(Cl)nc1ccccc12)N1CCN(Cc2ccccc2)CC1`, the figure is 210.5 to 211.5 °C; as for `O=c1[nH]c2ccccc2c2c(CCN3CCN(Cc4ccccc4)CC3)n(-c3ccccc3)nc12` [Example 24, 1-[2-(4-Benzylpiperazin-1-yl)ethyl]-2-phenyl-2,5-dihydro-4H-pyrazolo[3,4-c]quinolin-4-one], 211 to 212.5 °C; as for `O=c1[nH]c2ccccc2c2c(CCC3CCNCC3)n(-c3ccccc3)nc12` [Example 6, 2-Phenyl-1-(2-piperidin-4-ylethyl)-2,5-dihydro-4H-pyrazolo[3,4-c]quinolin-4-one], 250 to 252 °C.
With `CC(C)(C)OC(=O)N1CCC(CCc2c3c(nn2C(C)(C)C)c(=O)[nH]c2ccccc23)CC1` [Example 25, tert-Butyl 4-[2-(2-tert-butyl-4-oxo-4,5-dihydro-2H-pyrazolo[3,4-c]quinolin-1-yl)ethyl]piperidine-1-carboxylate] the figure was 223 to 225 °C; with `CC(C)(C)n1nc2c(=O)[nH]c3ccccc3c2c1CO` [Example 26, 2-tert-Butyl-1-(hydroxymethyl)-2,5-dihydro-4H-pyrazolo[3,4-c]quinolin-4-one], 295 to 297 °C; with `O=c1[nH]c2ccccc2c2c(C(O)CC3CCNCC3)n(-c3ccccc3)nc12` (stereo not shown) [Example 9, 1-(1-Hydroxy-2-piperidin-4-ylethyl)-2-phenyl-2,5-dihydro-4H-pyrazolo[3,4-c]quinolin-4-one], 258 to 261 °C.
As for `O=C(Cc1c2c(nn1-c1ccccc1)c(=O)[nH]c1ccccc12)N1CCN(Cc2ccccc2)CC1`, the figure is 283 to 285 °C.
`Cc1c2c(nn1-c1ccccc1)c(Cl)nc1ccccc12` [Example 12, 4-Chloro-1-methyl-2-phenyl-2H-pyrazolo[3,4-c]quinoline] had a melting point of 208 to 209 °C.
As for `O=c1[nH]c2ccccc2c2c(C(O)CC3CCCCC3)n(-c3ccccc3)nc12` (stereo not shown) [Example 10, 1-(2-Cyclohexyl-1-hydroxyethyl)-2-phenyl-2,5-dihydro-4H-pyrazolo[3,4-c]quinolin-4-one], the figure is 254 to 259 °C; as for `CCCCc1c2c(nn1-c1ccccc1)c(Cl)nc1ccccc12` [Example 16, 1-Butyl-4-chloro-2-phenyl-2H-pyrazolo[3,4-c]quinoline], 239 to 243 °C; as for `CC(C)(C)OC(=O)N1CCC(CC(O)c2c3c(nn2-c2ccccc2)c(=O)[nH]c2ccccc23)CC1` (stereo not shown) [Example 8, tert-Butyl 4-[2-hydroxy-2-(4-oxo-2-phenyl-4,5-dihydro-2H-pyrazolo[3,4-c]quinolin-1-yl)ethyl]piperidine-1-carboxylate], 253 to 254 °C.
With `CCOC(=O)Cc1c2c(nn1-c1ccccc1)c(=O)[nH]c1ccccc12` [Example 18, Ethyl (4-oxo-2-phenyl-4,5-dihydro-2H-pyrazolo[3,4-c]quinolin-1-yl)acetate] the figure was 301 to 303 °C.
The molecule `Clc1nc2ccccc2c2c(CCC3CCNCC3)n(-c3ccccc3)nc12` (as salt: HCl) [Example 7, 4-Chloro-2-phenyl-1-(2-piperidin-4-ylethyl)-2H-pyrazolo[3,4-c]quinoline] showed a melting point of 194 °C.
For `CCc1c2c(nn1-c1ccccc1)c(Cl)nc1ccccc12` [Example 15, 4-Chloro-1-ethyl-2-phenyl-2H-pyrazolo[3,4-c]quinoline], the melting point is 207 to 209 °C.

Source of the values: patent publication US8138173B2, “Pyrazolo[3,4-C]quinolines, pyrazolo[3,4-C]naphthyridines, analogs thereof, and methods” (3M Innovative Properties Company, priority 2005, dated 2012).
